Reference: US9049864B2, “Pyridazinone herbicidal compounds” (Syngenta Limited, priority 2012, dated 2015)

Assays:
Assay in all cases: Post-emergence herbicidal glasshouse test, percentage damage to the plant
Assay type in all cases: in vivo
Conditions in all cases: post-emergence, 1000 g/ha, evaluated after 13 days
[1] = tested on: Alopecurus myosuroides (ALOMY)
Method: (§1) Seeds of a variety of test species are sown in standard soil in pots:—Solanum nigrum (SOLNI), Amaranthus retoflexus (AMARE), Setaria faberi (SETFA), Alopecurus myosuroides (ALOMY), Echinochloa crus-galli (ECHCG), Ipomoea hederacea (IPOHE). After 8 days cultivation (post-emergence) under controlled conditions in a glasshouse (at 24/16° C., day/night; 14 hours light; 65% humidity), the plants are sprayed with an aqueous spray solution derived from the formulation of the technical active ingredient in acetone/water (50:50) solution containing 0.5% Tween 20 (polyoxyethelyene sorbitan monolaurate, CAS RN 9005-64-5). Compounds are applied at 1000 g/ha. The test plants are then grown in a glasshouse under controlled conditions in a glasshouse (at 24/16° C., day/night; 14 hours light; 65% humidity) and watered twice daily. After 13 days, the test is evaluated for the percentage damage caused to the plant. The biological activities are shown in the following table on a five point scale (5=80-100%; 4=60-79%; 3=40-59%; 2=20-39%; 1=0-19%). A comparative experiment is conducted to compare the biological efficacy of a compound of the present invention with those of WO 2011/045271. The test is performed as outlined above using the following compounds. Three different application rates are employed (250 g/ha, 500 g/ha and 1000 g/ha).

[2] = tested on: Amaranthus retoflexus (AMARE)
Method: as §1

[3] = tested on: Echinochloa crus-galli (ECHCG)
Method: as §1

[4] = tested on: Ipomoea hederacea (IPOHE)
Method: as §1

[5] = tested on: Setaria faberi (SETFA)
Method: as §1

[6] = tested on: Solanum nigrum (SOLNI)
Method: as §1

Row | SMILES | POST Application ALOMY, percentage damage (five point scale) [1] | POST Application AMARE, percentage damage (five point scale) [2] | POST Application ECHCG, percentage damage (five point scale) [3] | POST Application IPOHE, percentage damage (five point scale) [4] | POST Application SETFA, percentage damage (five point scale) [5] | POST Application SOLNI, percentage damage (five point scale) [6]
1 | CN1N=CC(=O)C(n2ccc3cc(Cl)ccc32)C1=O (stereo not drawn) [Compound 1.017] | 1 (1=0-19%) | 3 (3=40-59%) | 1 (1=0-19%) | 4 (4=60-79%) | 1 (1=0-19%) | 5 (5=80-100%)
2 | CC1=NN(C)C(=O)C(n2c(Cl)c(Cl)c3ccc(Cl)cc32)C1=O (stereo not drawn) [Compound 1.020] | 1 (1=0-19%) | 5 (5=80-100%) | 4 (4=60-79%) | 5 (5=80-100%) | 1 (1=0-19%) | 5 (5=80-100%)
3 | CC1=NN(C)C(=O)C(n2c(Cl)c(Br)c3ccccc32)C1=O (stereo not drawn) [Compound 1.021] | 2 (2=20-39%) | 5 (5=80-100%) | 2 (2=20-39%) | 5 (5=80-100%) | 1 (1=0-19%) | 5 (5=80-100%)
4 | CC1=NN(C)C(=O)C(n2c(Br)c(Br)c3cc(Br)ccc32)C1=O (stereo not drawn) [Compound 1.022] | 1 (1=0-19%) | 3 (3=40-59%) | 2 (2=20-39%) | 5 (5=80-100%) | 1 (1=0-19%) | 5 (5=80-100%)
5 | CC1=NN(C)C(=O)C(n2c(Br)c(Br)c3ccc(Br)cc32)C1=O (stereo not drawn) [Compound 1.023] | 2 (2=20-39%) | 5 (5=80-100%) | 3 (3=40-59%) | 5 (5=80-100%) | 1 (1=0-19%) | 5 (5=80-100%)
6 | CC1=NN(C)C(=O)C(n2c(Br)c(Br)c3ccccc32)C1=O (stereo not drawn) [Compound 1.024] | 1 (1=0-19%) | 5 (5=80-100%) | 2 (2=20-39%) | 5 (5=80-100%) | 2 (2=20-39%) | 5 (5=80-100%)
7 | CC1=NN(C)C(=O)C(n2cc(Br)c3ccccc32)C1=O (stereo not drawn) [Compound 1.025] | 1 (1=0-19%) | 4 (4=60-79%) | 1 (1=0-19%) | 3 (3=40-59%) | 1 (1=0-19%) | 5 (5=80-100%)
8 | CC1=NN(C)C(=O)C(n2c(Br)c(Cl)c3ccccc32)C1=O (stereo not drawn) [Compound 1.026] | 2 (2=20-39%) | 5 (5=80-100%) | 4 (4=60-79%) | 5 (5=80-100%) | 3 (3=40-59%) | 5 (5=80-100%)
9 | CC1=NN(C)C(=O)C(n2cc(Cl)c3ccccc32)C1=O (stereo not drawn) [Compound 1.027] | 1 (1=0-19%) | 4 (4=60-79%) | 3 (3=40-59%) | 4 (4=60-79%) | 1 (1=0-19%) | 5 (5=80-100%)
10 | CN1N=C(C#N)C(=O)C(n2c(Cl)c(Cl)c3ccccc32)C1=O (stereo not drawn) [Compound 2.001] | 1 (1=0-19%) | 3 (3=40-59%) | 2 (2=20-39%) | 5 (5=80-100%) | 2 (2=20-39%) | 5 (5=80-100%)
11 | CN1N=C(C(F)F)C(=O)C(n2c(Cl)c(Cl)c3ccccc32)C1=O (stereo not drawn) [Compound 2.002] | 1 (1=0-19%) | 5 (5=80-100%) | 1 (1=0-19%) | 5 (5=80-100%) | 1 (1=0-19%) | 5 (5=80-100%)
12 | CSC1=NN(C)C(=O)C(n2c(Cl)c(Cl)c3ccccc32)C1=O (stereo not drawn) [Compound 2.003, 4-(2,3-dichloroindol-1-yl)-2-methyl-6-methylsulfanyl-pyridazine-3,5-dione] | 1 (1=0-19%) | 2 (2=20-39%) | 1 (1=0-19%) | 4 (4=60-79%) | 1 (1=0-19%) | 2 (2=20-39%)
13 | CN1N=C(S(C)(=O)=O)C(=O)C(n2c(Cl)c(Cl)c3ccccc32)C1=O (stereo not drawn) [Compound 2.004] | 1 (1=0-19%) | 2 (2=20-39%) | 1 (1=0-19%) | 2 (2=20-39%) | 1 (1=0-19%) | 2 (2=20-39%)
14 | CN1N=C([S+](C)[O-])C(=O)C(n2c(Cl)c(Cl)c3ccccc32)C1=O (stereo not drawn) [Compound 2.005] | 1 (1=0-19%) | 2 (2=20-39%) | 1 (1=0-19%) | 5 (5=80-100%) | 1 (1=0-19%) | 5 (5=80-100%)
